Source: patent US20250270221A1, “SOLID FORMS OF JAK INHIBITOR AND PROCESS OF PREPARING THE SAME” (Incyte Corporation, priority 2022, published 2025)

Assay: Dynamic vapor sorption (DVS Intrinsic, Method D, not dried)
Assay type: physicochemical
Parameters: Hysteresis: unit not given here
Description: The samples were not dried prior to analysis. Sorption and desorption data were collected from 5% to 95% RH in 10% RH increments under a nitrogen purge. The equilibrium criteria used for the analyses were 0.001 dm/dt weight change in 5 minutes with a minimum step time of 30 minutes and maximum equilibration time of 180 minutes with a 3 minute data logging interval. Data were not corrected for the initial moisture content of the sample.

[1] = Target RH 95.0%, sample RH 95.8%

In the case of `N#CC[C@H](C1CCCC1)n1cc(-c2ncnc3[nH]ccc23)cn1` [Form I, (R)-3-(4-(7H-pyrrolo[2,3-d]pyrimidin-4-yl)-1H-pyrazol-1-yl)-3-cyclopentylpropanenitrile], the Hygroscopicity (DVS Method D) is reported as “hygroscopic”, the “Desorp Mass Change” value (Target RH 5.0%, sample RH 5.1%) is reported as 5.04% and the “Sorp Mass Change” value (Target RH 5.0%, sample RH 5.4%) is reported as 0.00%. For the same compound, the Hysteresis (Target RH 15.0%) was 9.78, the “Sorp Mass Change” value (Target RH 15.0%, sample RH 15.6%) was 0.06% and the “Desorp Mass Change” value (Target RH 15.0%, sample RH 16.1%) was 9.84%. For the same compound, the Hysteresis (Target RH 25.0%) was 9.94, the “Sorp Mass Change” value (Target RH 25.0%, sample RH 25.4%) was 0.11% and the “Desorp Mass Change” value (Target RH 25.0%, sample RH 25.9%) was 10.05%. The Hysteresis (Target RH 35.0%) was 10.06, the “Sorp Mass Change” value (Target RH 35.0%, sample RH 35.4%) was 0.15% and the “Desorp Mass Change” value (Target RH 35.0%, sample RH 36.0%) was 10.21%. For the same compound, the Hysteresis (Target RH 45.0%) was 10.16, the “Sorp Mass Change” value (Target RH 45.0%, sample RH 45.5%) was 0.19% and the “Desorp Mass Change” value (Target RH 45.0%, sample RH 46.1%) was 10.35%. The Hysteresis (Target RH 55.0%) was 10.21, the “Sorp Mass Change” value (Target RH 55.0%, sample RH 55.3%) was 0.26% and the “Desorp Mass Change” value (Target RH 55.0%, sample RH 56.1%) was 10.47%. For the same compound, the Hysteresis (Target RH 65.0%) was 4.28, the “Sorp Mass Change” value (Target RH 65.0%, sample RH 65.5%) was 6.30% and the “Desorp Mass Change” value (Target RH 65.0%, sample RH 66.2%) was 10.58%. For the same compound, the Hysteresis (Target RH 75.0%) was 3.65, the “Sorp Mass Change” value (Target RH 75.0%, sample RH 75.3%) was 7.04% and the “Desorp Mass Change” value (Target RH 75.0%, sample RH 76.3%) was 10.68%. For the same compound, the Hysteresis (Target RH 85.0%) was 0.79, the “Sorp Mass Change” value (Target RH 85.0%, sample RH 86.1%) was 10.00% and the “Desorp Mass Change” value (Target RH 85.0%, sample RH 89.4%) was 10.79%. For the same compound, the “Desorp Mass Change” value [1] was 10.83%, the “Sorp Mass Change” value [1] was 10.83% and the Additional weight loss (desorption from 15 to 5% RH) was 4.8%. The Weight loss (desorption from 95 to 15% RH) was 1%, the Weight gain (from 5 to 55% RH) was 0.26% and the Weight gain (from 55 to 95% RH) was 10.6%. The “Solid form of post DVS sample” value (less crystalline than the starting material) was “Form I”.
